Data: patent US11607421B2, “Ethanolamine-based lipid biosynthetic compounds, method of making and use thereof” (Metanoi Therapeutics, Inc., priority 2016, dated 2023)
Converted amounts (≈) assume the structure as drawn.

Key:
PC-3 cells [1] = assay: MTT cell proliferation assay; format: cell-based, human
Description: (§1) Next, a clonogenic cell survival assay was performed to assess the reproductive capacity of cells upon drug removal.
(§2) After 48 h, drug containing medium was replaced by medium containing MTT (tetrazolium bromide) at a concentration of 0.5 mg/ml. The yellow tetrazolium salt is reduced to insoluble purple formazan by viable cells. After 4 h of incubation in dark, formazan crystals produced by viable cells were dissolved by 200 μl DMSO and the amount of formazan crystals formed was quantified by recording the absorbance at 570 nm using multi-well plate reader. […] After 10 days, colonies were fixed with 4% formaldehyde, stained with crystal violet and counted.

CK KD PC-3 cells = assay: MTT assay in choline kinase knock down cells (siRNA); format: cell-based; details: Homo sapiens, PC-3, 48 h; read-out: decrease in cell viability
Source text: (Panel D) Choline kinase expression in prostate cancer cell lines (PC-3, DU145 and C42B) and normal prostate cell line (RWPE-1). GAPDH was used as a loading control. (Panel E) Scatter-plot comparing choline kinase expression in normal and cancer tissue from prostate cancer patients (p=0.002). The p value for statistical significance was set up as 0.05, while the fold change was defined as mean of all individual data points of analyzed datasets. (Panel Fi) Micrographs showing immunohistochemical staining of choline kinase enzyme in normal and cancer tissue from prostate cancer patients. (Panel Fii) Quantification (composite score) of choline kinase expression in normal and cancer tissue from prostate cancer patient. Five normal and five cancer tissue cases on TMA were scored for choline kinase staining percentage and intensity and composite scores were calculated using two parameters. As shown in these figures, choline kinase enzyme is highly expressed in cancer tissue as opposed to normal tissue.
A siRNA approach was further employed to confirm the role of CK in Etn-induced cell death.

PC-3 cells [2] = assay: Intracellular levels of Etn and PhosE by LC-MS/MS; format: cell-based, human; details: 1 mg/ml, 48 h, pH 7.4
PC-3 cells [3] = assay: Glucose and glutamine contents in cultured cells (LC-MS/MS); details: 2 mg/ml Etn for 48 h vs control cells
CYP2D6 = CYP2D6 (Homo sapiens, UniProt P10635); assay: CYP inhibition in human liver microsomes
Sequence of CYP2D6 (P10635 whole entry): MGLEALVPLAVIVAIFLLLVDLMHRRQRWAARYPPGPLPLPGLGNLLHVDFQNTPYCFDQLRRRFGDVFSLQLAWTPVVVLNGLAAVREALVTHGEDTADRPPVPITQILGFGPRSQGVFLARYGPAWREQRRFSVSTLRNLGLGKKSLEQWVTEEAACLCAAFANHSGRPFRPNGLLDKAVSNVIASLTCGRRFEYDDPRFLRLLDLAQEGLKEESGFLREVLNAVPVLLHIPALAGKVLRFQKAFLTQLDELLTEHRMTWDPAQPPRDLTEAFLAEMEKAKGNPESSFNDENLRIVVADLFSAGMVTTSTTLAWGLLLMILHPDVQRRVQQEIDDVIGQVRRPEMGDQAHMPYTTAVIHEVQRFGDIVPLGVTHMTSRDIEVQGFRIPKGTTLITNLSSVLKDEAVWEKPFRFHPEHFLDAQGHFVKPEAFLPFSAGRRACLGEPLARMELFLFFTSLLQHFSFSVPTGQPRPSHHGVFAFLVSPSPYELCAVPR

CYP2B6 = CYP2B6 (Homo sapiens, UniProt P20813); assay: CYP inhibition in human liver microsomes
Sequence of CYP2B6 (P20813 whole entry): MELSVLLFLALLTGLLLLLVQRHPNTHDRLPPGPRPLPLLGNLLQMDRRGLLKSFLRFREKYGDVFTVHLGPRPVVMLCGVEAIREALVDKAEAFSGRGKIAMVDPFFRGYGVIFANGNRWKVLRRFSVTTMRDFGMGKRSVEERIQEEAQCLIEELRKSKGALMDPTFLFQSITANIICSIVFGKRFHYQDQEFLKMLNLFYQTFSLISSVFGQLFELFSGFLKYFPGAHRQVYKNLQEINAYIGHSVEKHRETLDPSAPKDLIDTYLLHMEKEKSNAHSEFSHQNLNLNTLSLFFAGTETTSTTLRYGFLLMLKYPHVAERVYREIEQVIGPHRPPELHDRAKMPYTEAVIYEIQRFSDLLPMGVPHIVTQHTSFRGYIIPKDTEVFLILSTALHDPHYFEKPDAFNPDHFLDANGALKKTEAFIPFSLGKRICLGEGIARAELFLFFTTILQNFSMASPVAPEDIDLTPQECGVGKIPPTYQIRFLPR

CYP2C19 = CYP2C19 (Homo sapiens, UniProt P33261); assay: CYP inhibition in human liver microsomes
Sequence of CYP2C19 (P33261 whole entry): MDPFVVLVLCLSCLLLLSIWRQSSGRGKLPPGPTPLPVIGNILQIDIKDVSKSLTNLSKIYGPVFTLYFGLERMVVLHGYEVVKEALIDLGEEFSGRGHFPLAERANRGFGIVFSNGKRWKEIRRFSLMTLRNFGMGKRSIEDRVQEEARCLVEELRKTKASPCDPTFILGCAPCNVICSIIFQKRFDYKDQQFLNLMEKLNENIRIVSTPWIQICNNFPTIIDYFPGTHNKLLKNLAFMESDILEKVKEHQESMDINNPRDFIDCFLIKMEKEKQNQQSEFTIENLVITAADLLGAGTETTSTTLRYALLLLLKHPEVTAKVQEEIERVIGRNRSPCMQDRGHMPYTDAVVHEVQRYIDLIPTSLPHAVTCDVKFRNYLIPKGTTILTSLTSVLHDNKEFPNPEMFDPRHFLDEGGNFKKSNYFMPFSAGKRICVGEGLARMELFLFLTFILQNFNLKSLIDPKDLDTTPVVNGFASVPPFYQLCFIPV

plasma proteins = assay: Binding to proteins in plasma (ultrafiltration); format: in vitro ADME; details: pH 7.4, 37° C., 30 min
Description: Plasma from human, dog, rat and mouse were thawed and incubated at 37° C. The pH of the plasma was adjusted to 7.4 using dilute hydrochloric acid. A 5 μL aliquot of ethanolamine (2 mM) was spiked into 995 μL of plasma and incubated at 37° C. for 30 min in CO2 incubator. One mL aliquots of plasma were transferred to ultrafiltration tubes for analysis. All ultrafiltration tubes were centrifuged at 1000 g for 20 min. Samples from top and bottom chamber of ultrafiltration tube were collected. Equal volume of blank plasma and ultrafiltrate were mixed to ultrafiltrate and plasma to make the matrix same. Samples were processed by using acetonitrile containing internal standard and subjected to LC/MS/MS analysis.

in vivo = assay: in vivo; set-up: species or system SD rats; details: SD, rat, po, 40 mg/kg
Source text: These formulations differ in pH and/or acid used to adjust the pH.

PC-3-luc = PC-3-luc prostate tumor xenograft
Ki67 = assay: Immunohistochemical staining of PC-3-luc xenografts; format: in vivo, mice; details: Etn-treated tumors (40 mg/kg)
Description: (§3) OCR was measured using an oxygen electrode.
While ˜62% cells were Ki67-positive in untreated control tumors, Ki67 positivity was reduced to ˜40% in Etn-treated tumors (FIG. 14, panel Dii).
Tumors were formalin-fixed, paraffin-embedded and 5 μm thick prostate tumor sections were stained for Ki67 and c-PARP, and prostate cancer TMA (US Biomax, Derwood, Mass.) was immunostained for choline kinase. All stained slides were examined by a pathologist in a blinded-manner.

[4] = tested on: pRb, Cdk4, Cdk2, p21, c-PARP, Bim, Bcl-2; assay: Immunoblot of cell lysates; format: cell-based, human; details: PC-3 cells, 2 mg/ml Etn for 48 h
Description: as §3
Proteins were resolved by polyacrylamide gel electrophoresis and transferred onto polyvinylidene difluoride membranes (Millipore, Billerica, Mass., USA). The membranes were blocked in Tris-buffered saline containing 0.05% Tween-20 and 5% fat-free dry milk and incubated first with primary antibodies and then with horseradish peroxidase-conjugated secondary antibodies. Specific proteins were visualized with enhanced chemiluminescence detection reagent according to the manufacturer's instructions (Pierce Biotechnology, Rockford, Ill., USA).

PC-3 cells [5] = assay: Clonogenic cell survival (colony) assay; format: cell-based, human; details: 2 mg/ml, 48 h treatment, colonies after 10 days
Description: as §1, §2

DU145 = assay: MTT cell proliferation assay; format: cell-based, human; details: 0.5 mg/ml Etn, 48 h; range given for PC-3, DU145 and C4-2B together
Description: as §2

[6] = 40 mg/kg Etn pH 5 (phosphoric acid), oral gavage, 4 weeks

Structure (SMILES): NCCO [Etn, monoethanolamine]
- Etn-induced cell death with HIF1-α stabilization (PC-3 cells [1]; 35 μg/mL DMOG pre-treatment 4 h, then 1 and 2 mg/ml Etn with DMOG 48 h): more effective in reducing survival in PC-3 cells
- reduction of cell survival (PC-3 cells [1]; 0.5 mg/ml Etn, 48 h, pH 7.4 (siRNA experiment)): ~38%
- reduction of survival (PC-3 cells [1]; 0.5 mg/ml Etn, 48 h, range given for PC-3, DU145 and C4-2B together): 30-52%
- reduction in cell proliferation (PC-3 cells [1]; 1 mg/ml Etn alone, 48 h, pH 7.4): ~33%
- reduction in cell proliferation (PC-3 cells [1]; 1 mg/ml Etn in the presence of 1 μM CKI, 48 h, pH 7.4): ~17%
- IC50 (PC-3 cells [1]; Homo sapiens, PC-3, 48 h, pH 7.4, MTT, 48 h, pH 7.4, read-out: half-maximal concentration (IC50)): ~880 µg/mL (≈ 14.4 mM)
- half-maximal concentration (IC50) (PC-3 cells [1]; MTT, 48 h, pH 7.4): 0.88 mg/mL
- cytotoxicity at 500 µg/mL (CK KD PC-3 cells): ~11%
- increase in intracellular PhosE levels compared to control cells (PC-3 cells [2]): ~40 fold
- glucose and glutamine contents (PC-3 cells [3]): significantly reduced
- IC50 (CYP2D6): > 100 µM
- IC50 (CYP2B6): > 100 µM
- IC50 (CYP2C19): > 100 µM
- percent bound (plasma proteins; dog plasma): less than 85%
- percent bound (plasma proteins; human plasma): less than 85%
- percent bound (plasma proteins; mouse plasma): less than 85%
- percent bound (plasma proteins; rat plasma): less than 85%
- Tmax (in vivo; female, pH 5): 19.8 min
- AUC(0-t) (in vivo; female, pH 5, AUClast): 33800 ng·h/mL
- Cmax (in vivo; female, pH 5, Cmax): 24100 ng/mL
- Tmax (in vivo; female, pH 7.4): 19.8 min
- AUC(0-t) (in vivo; female, pH 7.4, AUClast): 29000 ng·h/mL
- Cmax (in vivo; female, pH 7.4, Cmax): 25000 ng/mL
- Tmax (in vivo; male, pH 5): 19.8 min
- AUC(0-t) (in vivo; male, pH 5, AUClast): 29500 ng·h/mL
- Cmax (in vivo; male, pH 5, Cmax): 27100 ng/mL
- Tmax (in vivo; male, pH 7.4): 19.8 min
- AUC(0-t) (in vivo; male, pH 7.4, AUClast): 27300 ng·h/mL
- Cmax (in vivo; male, pH 7.4, Cmax): 23700 ng/mL
- body weight (PC-3-luc; 40 mg/kg Etn oral, over the course of treatment, both models): no apparent changes in body weight
- reduction in tumor volume vs untreated control tumors (PC-3-luc; [6]): ~67%
- reduction in tumor weight vs untreated control tumors (PC-3-luc; [6]): ~55%
- Ki67 positivity (Ki67): ~40%
- protein expression of apoptosis regulators [4]: an increase in protein expression of proapoptotic markers (c-PARP and Bim) and a decrease in antiapoptotic molecules (Bcl-2)
- protein expression of cell-cycle regulators [4]: downregulated protein expression of pRb, Cdk4, and Cdk2, and upregulated p21 expression
- decrease in colony numbers compared to control cells (PC-3 cells [5]): ~97%
- reduction of survival (DU145): 30-52%
